The numbers were not newly measured in publication PMC13167888 (Cancer Chemotherapy and Pharmacology, 2026), which cites them from elsewhere.

For series [1] the following is noted: bosutinib.
The next series has as its target T1, BCRP (Homo sapiens, UniProt Q9UNQ0).
T1 sequence (Q9UNQ0 1-655): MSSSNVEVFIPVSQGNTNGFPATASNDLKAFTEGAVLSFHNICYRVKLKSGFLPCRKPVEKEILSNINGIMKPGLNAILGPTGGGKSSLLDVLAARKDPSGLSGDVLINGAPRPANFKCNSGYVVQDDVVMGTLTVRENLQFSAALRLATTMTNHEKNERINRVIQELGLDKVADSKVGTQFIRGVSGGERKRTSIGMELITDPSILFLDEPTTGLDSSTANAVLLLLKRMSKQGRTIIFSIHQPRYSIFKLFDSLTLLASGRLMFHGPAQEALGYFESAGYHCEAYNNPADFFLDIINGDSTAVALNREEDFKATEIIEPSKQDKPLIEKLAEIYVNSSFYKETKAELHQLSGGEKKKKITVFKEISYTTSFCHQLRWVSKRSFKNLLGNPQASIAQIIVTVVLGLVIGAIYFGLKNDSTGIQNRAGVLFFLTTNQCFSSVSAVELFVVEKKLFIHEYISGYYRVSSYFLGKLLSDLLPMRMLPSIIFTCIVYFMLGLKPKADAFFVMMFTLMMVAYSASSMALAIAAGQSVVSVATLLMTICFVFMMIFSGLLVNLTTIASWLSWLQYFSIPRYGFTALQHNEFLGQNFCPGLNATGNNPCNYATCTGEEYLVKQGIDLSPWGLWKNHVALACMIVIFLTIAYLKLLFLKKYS

For `COc1cc(Nc2c(C#N)cnc3cc(OCCCN4CCN(C)CC4)c(OC)cc23)c(Cl)cc1Cl` [bosutinib], the Plasma protein binding in series [1] is 94% [37].
For `CC(C)/N=c1\cc2n(-c3ccc(Cl)cc3)c3ccccc3nc-2cc1Nc1ccc(Cl)cc1` [clofazimine], the IC50 (commonly the point on the concentration scale where inhibition reaches its midpoint) on BCRP is 3.2 µM.
